Measured values as given in US12083227B2, “Solid pharmaceutical formulations for treating endometriosis, uterine fibroids, polycystic ovary syndrome or adenomyosis” (priority 2017, dated 2024).

Assays:
[1] = drug interaction studies: co-administered drug in the presence of elagolix
Procedure: Drug interaction studies were performed with elagolix and other drugs that are likely to be co-administered and with drugs commonly used as probes for pharmacokinetic interactions.

[2] = gel formation and pH of elagolix sodium solution; type: physicochemical
Procedure: 1.23 gram of elagolix sodium was added to 2 mL purified water in a test tube. […] To facilitate continued dissolution, the solution was stirred and the gel was dispersed continuously using a spatula. The solution pH was measured with undissolved solid present using a calibrated pH meter.

[3] = Ethinyl estradiol 35 mcg and triphasic norgestimate 0.18/0.215/0.25 mg once daily, elagolix 150 mg once daily, N 21
[4] = 20 mg once daily, elagolix 300 mg twice daily × 7 days, N 10
[5] = 0.5 mg single dose, elagolix 200 mg twice daily × 10 days, N 11
[6] = 2 mg single dose, elagolix 150 mg once daily × 13 days, N 11
[7] = 2 mg single dose, elagolix 300 mg twice daily × 11 days, N 20
[8] = 0.35 mg once daily × 112 days, elagolix 150 mg once daily × 56 days, N 32

Compound: C#C[C@]1(O)CC[C@H]2[C@@H]3CCC4=CC(=NO)CC[C@@H]4[C@H]3CC[C@@]21CC (mixture of isomers) [Norelgestromin]
- AUC Ratio (with elagolix vs. medication alone) [1, 3]: 0.85
- Cmax Ratio (with elagolix vs. medication alone) [1, 3]: 0.87

Compound: C#CC1(O)CC[C@H]2[C@@H]3CCC4=CC(=O)CC[C@@H]4[C@H]3CC[C@@]21CC (mixture of isomers) [Norgestrel]
- AUC Ratio (with elagolix vs. medication alone) [1, 3]: 0.92
- Cmax Ratio (with elagolix vs. medication alone) [1, 3]: 0.89

Compound: CC(C)c1nc(N(C)S(C)(=O)=O)nc(-c2ccc(F)cc2)c1/C=C/[C@@H](O)C[C@@H](O)CC(=O)O [Rosuvastatin]
- AUC Ratio (with elagolix vs. medication alone) [1, 4]: 0.60
- Cmax Ratio (with elagolix vs. medication alone) [1, 4]: 0.99

Compound: C[C@H]1O[C@@H](O[C@H]2[C@@H](O)C[C@H](O[C@H]3[C@@H](O)C[C@H](O[C@H]4CC[C@@]5(C)[C@H](CC[C@@H]6[C@@H]5C[C@@H](O)[C@]5(C)[C@@H](C7=CC(=O)OC7)CC[C@]65O)C4)O[C@@H]3C)O[C@@H]2C)C[C@H](O)[C@@H]1O [Digoxin]
- AUC Ratio (with elagolix vs. medication alone) [1, 5]: 1.26
- Cmax Ratio (with elagolix vs. medication alone) [1, 5]: 1.71

Compound: Cc1ncc2n1-c1ccc(Cl)cc1C(c1ccccc1F)=NC2 [Midazolam]
- AUC Ratio (with elagolix vs. medication alone) [1, 6]: 0.65
- Cmax Ratio (with elagolix vs. medication alone) [1, 6]: 0.81
- AUC Ratio (with elagolix vs. medication alone) [1, 7]: 0.46
- Cmax Ratio (with elagolix vs. medication alone) [1, 7]: 0.56

Compound: COc1cccc(-c2c(C)n(Cc3c(F)cccc3C(F)(F)F)c(=O)n(C[C@H](NCCCC(=O)[O-])c3ccccc3)c2=O)c1F.[Na+] [elagolix sodium, sodium 4-((R)-2-[5-(2-fluoro-3-methoxy-phenyl)-3-(2-fluoro-6-trifluoromethyl-benzyl)-4-methyl-2,6-dioxo-3,6-dihydro-2H-pyrimidin-1-yl]-1-phenyl-ethylamino)butanoate]
- gel formation during dissolution ([2]; 1.23 gram added to 2 mL purified water): started to form gel
- pH value of the solution ([2]; 1.23 gram in 2 mL purified water, undissolved solid present, 20° C.): 9.80

Compound: C#C[C@]1(O)CC[C@H]2[C@@H]3CCc4cc(O)ccc4[C@H]3CC[C@@]21C [Ethinyl Estradiol]
- AUC Ratio (with elagolix vs. medication alone) [1, 3]: 1.30
- Cmax Ratio (with elagolix vs. medication alone) [1, 3]: 1.15

Compound: C#C[C@]1(O)CC[C@H]2[C@@H]3CCC4=CC(=O)CC[C@@H]4[C@H]3CC[C@@]21C [Norethindrone]
- AUC Ratio (with elagolix vs. medication alone) [1, 8]: 0.88
- Cmax Ratio (with elagolix vs. medication alone) [1, 8]: 0.95
